Reference: patent publication US12679839B2, “Cyclin-dependent kinase 7 (CDK7) non-covalent inhibitors” (JANSSEN PHARMACEUTICA NV, priority 2020, dated 2026)

Test system: RNA polymerase II Serine 5 phosphorylation (Rpb1 CTD), downstream substrate of CDK7
Test: Imaging-based cellular RNA PolII Ser5 phosphorylation assay in A549 cells
Assay type: cell-based, human
Conditions: Homo sapiens, A549, 3 h, challenged with compound for 3 hours, read-out: pRNA polII Ser5 (A549) pIC50 (converted)
Method in brief: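 A549 cells seeded 20 h in DMEM with 1% FBS, then exposed to compound for 3 h at 37 °C; fixed, methanol-permeabilized and immunostained for phospho-Rpb1 CTD Ser5, read by automated imaging. Signal normalized to DMSO (high) and 10 μM LDC4297 (low) controls; IC50 from four-parameter fit of % control vs concentration.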

IC50 [nM] | Compound
~41.7 | C[C@@H]1Cc2cnc(NCc3ccn(C)n3)nc2CN1C(=O)[C@H]1CCN(C)C[C@@H]1c1cccc(C(F)(F)F)c1 (relative stereo) [Compound 129]
110 | CC1CN(C(=O)[C@H]2CCN(C)C[C@@H]2c2ccccc2)Cc2nc(Nc3cnn(C)c3)ncc21 (mixture of isomers) [Compound 194]
72.4 | C[C@@H]1Cc2cnc(NC3CCOCC3)nc2[C@H](C)N1C(=O)[C@H]1CCN(C)C[C@@H]1c1ccccc1 (single isomer, unassigned) [Compound 195b]
105 | C[C@@H]1CN(C(=O)[C@H]2CCN(C)C[C@@H]2c2ccccc2)Cc2nc(NC3CCOCC3)ncc21 (relative stereo) [Compound 188]
398 | C[C@@H]1Cc2cnc(N[C@H]3CCOC(C)(C)C3)nc2CN1C(=O)[C@H]1CCN(C)C[C@@H]1c1ccccc1 (relative stereo) [Compound 39]
759 | C[C@@H]1Cc2cnc(N[C@H]3CCCNC3)nc2CN1C(=O)[C@H]1CCN(C)C[C@@H]1C(F)(F)F (relative stereo) [Compound 144]
1020 | CN1CC[C@H](C(=O)N2Cc3nc(NC4CCOCC4)ncc3CC2(C)C)[C@@H](c2ccccc2)C1 (relative stereo) [Compound 189]
1700 | Cc1cc([C@@H]2CN(C)CC[C@H]2C(=O)N2Cc3nc(NC4CCOCC4)ncc3C[C@H]2C)ccn1 (relative stereo) [Compound 102]
~26.9 | [2H]C([2H])([2H])N1CC[C@@H](C(=O)N2Cc3nc(NCc4ccn(C)n4)ncc3C[C@H]2C)[C@H](c2cccc(C)c2)C1 (single isomer, unassigned) [Compound 148]
~27.5 | Cc1cccc([C@@H]2CN(C)CC[C@H]2C(=O)N2Cc3nc(NCc4ccn(C)n4)ncc3C[C@H]2C)c1 (relative stereo) [Compound 136]
2510 | C[C@H]1CN(C(=O)[C@H]2CCN(C)C[C@@H]2c2ccccc2)[C@@H](C)c2nc(NC3CCOCC3)ncc21 (relative stereo) [Compound 181]
1260 | C[C@@H]1Cc2cnc(NCc3ccn(C)n3)nc2CN1C(=O)[C@H]1CCN(C)C[C@@H]1c1ccccc1C(F)F (relative stereo) [Compound 139]
97.7 | C[C@@H]1Cc2cnc(NC3CCOCC3)nc2CN1C(=O)[C@H]1CCN(C)C[C@@H]1c1cccc(F)c1 (relative stereo) [Compound 133]
832 | C[C@@H]1Cc2cnc(N[C@@H]3CCC(=O)N(C)C3)nc2CN1C(=O)[C@H]1CCN(C)C[C@@H]1c1ccccc1 (relative stereo) [Compound 6]
~81.3 | C[C@@H]1Cc2cnc(NC3CCOCC3)nc2CN1C(=O)[C@H]1CCN(C)C[C@@H]1c1ccc(Cl)cc1 (relative stereo) [Compound 132]
407 | CO[C@H]1CC[C@H](Nc2ncc3c(n2)CN(C(=O)[C@@H]2CCN(C)C[C@H]2c2ccnc(C)c2)[C@H](C)C3)CC1 (relative stereo) [Compound 105]
2570 | C[C@@H]1Cc2cnc(NCc3ccn(C)n3)nc2CN1C(=O)[C@H]1CCN(C)C[C@@H]1C(F)(F)F (relative stereo) [Compound 143]
129 | [2H]C([2H])([2H])N1CC[C@H](C(=O)N2Cc3nc(NCc4ccccc4)ncc3C[C@H]2C)[C@@H](c2ccccc2)C1 (single isomer, unassigned) [Compound 154]
2950 | C[C@@H]1CN(C)CC[C@H]1C(=O)N1Cc2nc(NC3CCOCC3)ncc2C[C@H]1C (relative stereo) [Compound 145]
692 | C[C@@H]1Cc2cnc(NC3CCOCC3)nc2CN1C(=O)[C@H]1CCN(C)C[C@@H]1C (relative stereo) [Compound 146]
~67.6 | Cc1cccc([C@H]2CN(C)CC[C@@H]2C(=O)N2Cc3nc(NC4CCOCC4)ncc3C[C@H]2C)c1 (relative stereo) [Compound 134]
> 10000 | C[C@@H]1Cc2cnc(NCc3ccccc3)nc2CN1C(=O)[C@@H]1CCN(C)C[C@H]1C(F)(F)F (relative stereo) [Compound 141]
